ChEMBL document CHEMBL1201862, “PubChem BioAssay data set” (2004)
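A five-concentration, 48-hour dose response in 96-well plates underlies each endpoint, interpolated linearly between surrounding concentrations. GI50: concentration for 50% inhibition of growth.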 Active and inactive are the calls of the source. Cut-off read from the data, not from the text of the source: active = GI50 up to about 1.1 µM and inactive = higher.

How the values were obtained:
Test in all cases: NCI anticancer screen, dose series, 48 h
786-0 = system: 786-0
A498 = system: A498
A549 = system: A549
ACHN = system: ACHN
BT-549 = system: BT-549
CAKI-1 = system: CAKI-1
CCRF-CEM = system: CCRF-CEM
COLO 205 = system: COLO 205
DU-145 = system: DU-145
EKVX = system: EKVX
HCC 2998 = system: HCC 2998
HCT-116 = system: HCT-116
HCT-15 = system: HCT-15
HL-60 = system: HL-60
HOP-62 = system: HOP-62
HOP-92 = system: HOP-92
HT-29 = system: HT-29
Hs-578T = system: Hs-578T
IGROV-1 = system: IGROV-1
K562 = system: K562
KM12 = system: KM12
LOX IMVI = system: LOX IMVI
M14 = system: M14
MCF7 = system: MCF7
MDA-MB-231 = system: MDA-MB-231
MDA-MB-435 = system: MDA-MB-435
MDA-N = system: MDA-N
MOLT-4 = system: MOLT-4
Malme-3M = system: Malme-3M
NCI-H226 = system: NCI-H226
NCI-H23 = system: NCI-H23
NCI-H460 = system: NCI-H460
NCI-H522 = system: NCI-H522
NCI/ADR-RES = system: NCI/ADR-RES
OVCAR-3 = system: OVCAR-3
OVCAR-4 = system: OVCAR-4
OVCAR-5 = system: OVCAR-5
OVCAR-8 = system: OVCAR-8
PC-3 = system: PC-3
RPMI-8226 = system: RPMI-8226
RXF 393 = system: RXF 393
SF-268 = system: SF-268
SF-295 = system: SF-295
SF-539 = system: SF-539
SK-MEL-28 = system: SK-MEL-28
SK-MEL-2 = system: SK-MEL-2
SK-MEL-5 = system: SK-MEL-5
SK-OV-3 = system: SK-OV-3
SN12C = system: SN12C
SNB-19 = system: SNB-19
SR = system: SR
SW-620 = system: SW-620
T47D = system: T47D
TK-10 = system: TK-10
U-251 = system: U-251
UACC-257 = system: UACC-257
UACC-62 = system: UACC-62
UO-31 = system: UO-31

Question: `O=[N+]([O-])c1ccc(Oc2c(Cl)cc(S(=O)(=O)N/C(=N\O)Nc3ccc(Cl)cc3)cc2Cl)cc1` was tested. Which GI50 (786-0) did it give?
Answer: The GI50 was 11.2 µM (inactive).

Question: And the GI50 (A498)?
Answer: The GI50 was 10.4 µM (inactive).

Question: What about the GI50 (A549) of the same molecule?
Answer: Its GI50 is 13.6 µM (inactive).

Question: And the GI50 (ACHN)?
Answer: The GI50 was 11.6 µM (inactive).

Question: What about the GI50 (BT-549) of the same molecule?
Answer: Its GI50 is 12 µM (inactive).

Question: What about the GI50 (CAKI-1) of the same molecule?
Answer: The GI50 was 5.57 µM (inactive).

Question: And the GI50 (CCRF-CEM)?
Answer: Its GI50 is 8.22 µM (inactive).

Question: And the GI50 (COLO 205)?
Answer: The GI50 was 15.1 µM (inactive).

Question: And the GI50 (DU-145)?
Answer: The GI50 was 15.1 µM (inactive).

Question: And the GI50 (EKVX)?
Answer: Its GI50 is 11.9 µM (inactive).

Question: And the GI50 (HCC 2998)?
Answer: Its GI50 is 4.1 µM (inactive).

Question: What about the GI50 (HCT-116) of the same molecule?
Answer: The GI50 was 10.5 µM (inactive).

Question: What about the GI50 (HCT-15) of the same molecule?
Answer: The GI50 was 11.2 µM.

Question: And the GI50 (HL-60)?
Answer: Its GI50 is 2.47 µM (inactive).

Question: And the GI50 (HOP-62)?
Answer: Its GI50 is 15.2 µM (inactive).

Question: And the GI50 (HOP-92)?
Answer: Its GI50 is 2.31 µM (inactive).

Question: And the GI50 (HT-29)?
Answer: The GI50 was 14.4 µM (inactive).

Question: What about the GI50 (Hs-578T) of the same molecule?
Answer: Its GI50 is 14.6 µM (inactive).

Question: What about the GI50 (IGROV-1) of the same molecule?
Answer: Its GI50 is 14 µM (inactive).

Question: And the GI50 (K562)?
Answer: The GI50 was 13.8 µM (inactive).

Question: What about the GI50 (KM12) of the same molecule?
Answer: Its GI50 is 13.5 µM (inactive).

Question: What about the GI50 (LOX IMVI) of the same molecule?
Answer: Its GI50 is 11.1 µM (inactive).

Question: And the GI50 (M14)?
Answer: Its GI50 is 12.6 µM (inactive).

Question: And the GI50 (MCF7)?
Answer: Its GI50 is 7 µM (inactive).

Question: And the GI50 (MDA-MB-231)?
Answer: The GI50 was 11 µM (inactive).

Question: What about the GI50 (MDA-MB-435) of the same molecule?
Answer: The GI50 was 13.9 µM (inactive).

Question: What about the GI50 (MDA-N) of the same molecule?
Answer: Its GI50 is 12 µM (inactive).

Question: What about the GI50 (MOLT-4) of the same molecule?
Answer: Its GI50 is 6.11 µM (inactive).

Question: And the GI50 (Malme-3M)?
Answer: Its GI50 is 14.8 µM (inactive).

Question: And the GI50 (NCI-H226)?
Answer: Its GI50 is 14 µM (inactive).

Question: And the GI50 (NCI-H23)?
Answer: Its GI50 is 9.98 µM (inactive).

Question: What about the GI50 (NCI-H460) of the same molecule?
Answer: Its GI50 is 11.6 µM (inactive).

Question: And the GI50 (NCI-H522)?
Answer: Its GI50 is 3.15 µM (inactive).

Question: And the GI50 (NCI/ADR-RES)?
Answer: Its GI50 is 12.6 µM (inactive).

Question: What about the GI50 (OVCAR-3) of the same molecule?
Answer: Its GI50 is 5.87 µM (inactive).

Question: What about the GI50 (OVCAR-4) of the same molecule?
Answer: The GI50 was 3.94 µM (inactive).

Question: And the GI50 (OVCAR-5)?
Answer: Its GI50 is 7.66 µM (inactive).

Question: And the GI50 (OVCAR-8)?
Answer: The GI50 was 12.6 µM (inactive).

Question: And the GI50 (PC-3)?
Answer: Its GI50 is 10.4 µM (inactive).

Question: And the GI50 (RPMI-8226)?
Answer: Its GI50 is 5.38 µM (inactive).

Question: And the GI50 (RXF 393)?
Answer: The GI50 was 13.5 µM (inactive).

Question: What about the GI50 (SF-268) of the same molecule?
Answer: The GI50 was 12.5 µM (inactive).

Question: And the GI50 (SF-295)?
Answer: The GI50 was 13.1 µM (inactive).

Question: What about the GI50 (SF-539) of the same molecule?
Answer: The GI50 was 13.5 µM (inactive).

Question: And the GI50 (SK-MEL-28)?
Answer: The GI50 was 13.9 µM (inactive).

Question: And the GI50 (SK-MEL-2)?
Answer: The GI50 was 10.9 µM (inactive).

Question: What about the GI50 (SK-MEL-5) of the same molecule?
Answer: The GI50 was 9.44 µM (inactive).

Question: What about the GI50 (SK-OV-3) of the same molecule?
Answer: Its GI50 is 15.7 µM (inactive).

Question: What about the GI50 (SN12C) of the same molecule?
Answer: The GI50 was 12.5 µM (inactive).

Question: What about the GI50 (SNB-19) of the same molecule?
Answer: The GI50 was 15.2 µM (inactive).

Question: And the GI50 (SR)?
Answer: Its GI50 is 4.02 µM (inactive).

Question: And the GI50 (SW-620)?
Answer: The GI50 was 13.1 µM (inactive).

Question: What about the GI50 (T47D) of the same molecule?
Answer: The GI50 was 7.98 µM (inactive).

Question: What about the GI50 (TK-10) of the same molecule?
Answer: The GI50 was 11.2 µM (inactive).

Question: What about the GI50 (U-251) of the same molecule?
Answer: The GI50 was 13 µM (inactive).

Question: And the GI50 (UACC-257)?
Answer: Its GI50 is 10.6 µM (inactive).

Question: And the GI50 (UACC-62)?
Answer: Its GI50 is 11.5 µM (inactive).

Question: What about the GI50 (UO-31) of the same molecule?
Answer: The GI50 was 5.79 µM (inactive).
